{"source": "patent US10703777B2", "about": "“Miniature protein scaffolds and methods for use thereof” (New York University, priority 2017, dated 2020)", "type_in_all_cases": "physicochemical", "key": {"[1]": {"assay": "Guanidinium chloride (GnCl) titration monitored by near-UV CD at 280 nm", "settings": "standard aqueous conditions at 25° C.; extrapolated from variable GnCl concentration near-UV CD data (280 nm), 50 μM protein", "procedure": "CD spectra were collected using an Aviv (Lakewood, N.J.) stopped flow CD Spectropolarimeter Model 202SF. The far-UV (190-260 nm) CD spectra were obtained using a 1 mm path length cell and in 10 mM PBS buffer at a pH of 7.5 at 100 μM protein concentrations. The near-UV (245-320 nm) CD spectra were obtained using a 1 cm path length cell and in 10 mM PBS buffer at a pH of 7.5 at 50 μM concentrations. The consensus CD spectra were established as the Gaussian weighted average of 40 scans with evaluation of ellipticity every 0.5 nm, each having an averaging time of 0.5 s. […] Concentrations of protein stock solutions for conversion of millidegrees to mean residue ellipticity (MRE) were determined by UV absorbance at 280 nm using the standard extinction coefficients for the tryptophan (5690 M-1 cm-1), tyrosine (1280M-1 cm-1), and disulfide-bridged cysteine (125M-1 cm-1) chromophores in 6 M GnCl. […]\nSecondary and tertiary structure content of the mini-protein was initially evaluated using circular dichroism (CD) spectroscopy (FIG. 4A,B). In the near-UV (260-320 nm) CD spectrum, ellipticity can arise from indole and phenol absorbance bands when tryptophan or tyrosine side chains are present in an asymmetric environment. […]"}, "[2]": {"assay": "Near-UV CD thermal melts monitoring mean residue ellipticity at 280 nm", "settings": "10 mM PBS buffer pH 7.5, elevated temperatures", "procedure": "FIGS. 6A-6B. Near-UV CD thermal melts for the TrpPlexus cation-π interation network mutants. (6A) Schematic of the cation-π network of TrpPlexus detailing variable amino acid positions 1, 3, and 5 in the mutant sequences. (6B) Near-UV CD thermal melts for TrpPlexus (“RRR”) and each mutant monitoring mean residue ellipticity at 280 nm (50 μM protein, 1 cm path length, 10 mM PBS buffer pH 7.5). Inset compares side-chain functionalities of the arginine (R), lysine (K), and L-citrulline (Cit) residues.\nCD spectra were collected using an Aviv (Lakewood, N.J.) stopped flow CD Spectropolarimeter Model 202SF. […] Concentrations of protein stock solutions for conversion of millidegrees to mean residue ellipticity (MRE) were determined by UV absorbance at 280 nm using the standard extinction coefficients for the tryptophan (5690 M-1 cm-1), tyrosine (1280M-1 cm-1), and disulfide-bridged cysteine (125M-1 cm-1) chromophores in 6 M GnCl. […]\nTo explore the influence of cationic groups on fold stability, mutants were designed that replaced particular guanidinyl (arginine) side chain groups with either amino (lysine) cations or charge-neutral urea (L-citrulline) groups (FIG. 6). The near-UV CD signal monitored at 280 nm provides a metric of relative tertiary structure content (FIG. 6B). […]"}, "[3]": {"assay": "Sedimentation equilibrium analysis", "settings": "concentration of 1.8 mM at 4° C.", "procedure": "Sedimentation equilibrium measurements were carried out on a Beckman (Brea, Calif.) XL-A analytical ultracentrifuge equipped with absorption optics and an An-60 Ti rotor. Analysis was conducted at rotor speeds of 45,000 and 48,000 rpm at 4° C. Data were acquired at two wavelengths per rotor speed setting and processed globally for the best fit to a single-species model of absorbance versus radial distance. Solvent density and protein partial specific volume were calculated according to solvent and protein composition, respectively.\nThe native sequence on which to initiate the mini-protein design was chosen based on two primary criteria. First, the present inventors sought a sequence containing a loop featuring a β-hairpin, which could be nucleated using a D-Pro-Gly motif (2, 7). Most of the loop regions observed in WSXWS motifs are lacking in canonical forms of secondary structure that could be enforced with rational peptide design (FIG. 2). Second, the present inventors wanted a sequence containing three arginine residues on the β-strand portion of the fold composing the cation-π interaction network. The only sequence meeting these two criteria was that of the WSXWS motif found in IL3RB (UniprotID: P32927). […] The apparent molecular mass was within 10% of that calculated for an ideal monomer, with no systematic deviation of the residuals. […]"}}, "note": "Entries after “also recorded” stand apart in the source; their conditions may differ."}
{"substance": "RVRVRTSRpGYNGTWSEWS [TrpPlexus]", "values": [{"measurement": "ΔG° for folding", "setting": "[1]", "result": "approximately −6.7 kcal/mol"}, {"measurement": "near-UV CD signal as a function of temperature (thermostability)", "setting": "[2]", "result": "slightly increase in strength at elevated temperatures, indicating thermostability; also recorded: weakly sigmoidal transitions to stronger ellipticities at elevated temperatures"}, {"measurement": "oligomeric state by sedimentation equilibrium", "setting": "[3]", "result": "monomeric"}]}
